Consider 11 molecules from patent publication US8507557B2, “Potentiators of insulin secretion” (Wisconsin Alumni Research Foundation, priority 2003, dated 2013).

Experiment [1] concerns hyperexcitable Newgard Ins-1 cells. Particulars: low (3 mM) or high (15 mM) glucose; 2 hours at 3 mM glucose with compound, then 2 hours. As to the method:
The cells were incubated at 3 mM glucose with the indicated concentrations of either αKG or the DPD analog for 2 hours. Then, the cells were incubated for an additional 2 hours in either 3 or 15 mM glucose.

For the next experiment, the system named is Ins-1 cell. As to the kind of experiment: Ins-1 cell insulin secretion assay, preliminary SAR study in high glucose (FIG. 1). Particulars: presence of high glucose; Ins-1 cell assay. It is filed as cell-based, rat. As to the method: The ability of various structurally-related compounds to alter insulin secretion in the presence of high glucose was tested in a preliminary structure-activity relationship (SAR) study to elucidate the molecular structures relevant to the insulin segretagogue potential of DPD and other αKG analogs. The compounds tested, shown in FIG. 1, are presented in order of decreasing ability to secrete insulin in an Ins-1 cell assay of the type described below in the Working Example. Each tested compound is commercially available and all were purchased from Sigma-Aldrich. Each compound contained two carboxylate groups. Variables evaluated in this study included the relative position of the carboxylate groups to one another, as well as the presence or absence of a nitrogen or sulfur group, additional R-groups, and esterified carboxy groups.

A further experiment relates to rat Ins-1 beta cell line. Particulars: rat Ins-1 cells; effect not as dramatic as in responsive cell line.
For the next experiment, the system named is pancreatic β cells. As to the kind of experiment: Insulin secretion from pancreatic β cells with Ca2+ channel, α2-adrenergic and KATP modulators. Particulars: for effect on insulin secretion elicited by glyburide: in the presence of glyburide; for effect on insulin secretion caused by glucose, KIC, αKG or DPD: α2-adrenergic agonists.
The next experiment deals with β cells. Particulars: without affecting glucose metabolism; cited from earlier work.
For experiment [2] the following is noted: as reported in Diabetes Care 25:1271 (2002); cited from earlier work.

Description for pancreatic β cells: The physiological relevance of insulin secretion from pancreatic β cells elicited by αKG was evaluated.
Possible targets for the segretagogue action of αKG were examined by reevaluating targets implicated for KIC-dependent increases in insulin secretion, since the effects of KIC are likely exerted through transamination that yields αKG. […] To biochemically test this hypothesis the inventors used known drugs to modulate KATP and then determined whether αKG and DPD could still affect insulin secretion.

In the case of `CCOC(=O)c1ccnc(C(=O)OCC)c1` [DPD, 2,4-diethyl pyridine dicarboxylate], the “effect upon insulin secretion (fractional insulin release)” value in experiment [1] is “marked positive effect”. Besides, the insulin secretion with Ins-1 cell is approximately 14%. In addition, the “effect on insulin secretion (fractional insulin release)” value in the experiment on rat Ins-1 beta cell line is recorded as “increase in insulin secretion”. Moreover, in the experiment on pancreatic β cells, the “potency on insulin secretion relative to αKG” value was “extremely potent relative to αKG” and the “effect on insulin secretion elicited by glyburide” value (“effect … by glyburide” for short) was “augmented”.

In the case of `CC1=NS(=O)(=O)c2cc(Cl)ccc2N1` [Diazoxide], in the experiment on pancreatic β cells (KATP agonist), the “effect on ability of αKG, DPD and KIC to promote insulin release” value is given as “completely suppresses”.

Take `CC(C)CC(=O)C(=O)O` [KIC, α-ketoisocaproic acid]: the “effect … by glyburide” value in the experiment on pancreatic β cells is “augmented”.

Regarding `Clc1cccc(Cl)c1N=C1NCCN1` [clonidine], the “effect on insulin secretion caused by glucose, KIC, αKG or DPD” value in the experiment with pancreatic β cells is “greatly suppressed”.

For `CNC[C@H](O)c1ccc(O)c(O)c1` [epinephrine], the “effect on insulin secretion caused by glucose, KIC, αKG or DPD” value in the experiment on pancreatic β cells was “greatly suppressed”.

For the molecule `O=c1c(-c2ccc(O)cc2)coc2cc(O)cc(O)c12` [genistein], in the experiment on β cells, the “effect on KIC-stimulated insulin release” value is reported as “inhibited”.

In the case of `Cc1cnc(C(=O)NCCc2ccc(S(=O)(=O)NC(=O)NC3CCCCC3)cc2)cn1` [glipizide], the increase in insulin in experiment [2] is given as 54%.

As for `COc1ccc(Cl)cc1C(=O)NCCc1ccc(S(=O)(=O)NC(=O)NC2CCCCC2)cc1` [glyburide], the insulin secretion elicited entry in the experiment on pancreatic β cells (KATP antagonist) is “elicits an insulin secretion”.

`CCOc1cc(CC(=O)N[C@@H](CC(C)C)c2ccccc2N2CCCCC2)ccc1C(=O)O` [repaglinide]: the increase in insulin in experiment [2] was 47%.

On to `N#C/C(=C\c1ccc(O)c(O)c1)C(N)=S` [tyrphostin A47], for which the “effect on KIC-stimulated insulin release” value in the experiment with β cells was “inhibited”.

`O=C(O)CCC(=O)C(=O)O` [αKG, α-ketoglutarate]: in the experiment with pancreatic β cells, the “effect … by glyburide” value is reported as “augmented”.
